In publication PMC9403976, “Elucidating the path to Plasmodium prolyl-tRNA synthetase inhibitors that overcome halofuginone resistance” (Nature Communications, 2022):
“And” between values parts separate entries of the source, which are not always exact repeats. Identical values can stand only once. Like-named read-outs stand apart in the source and are kept apart here.

What was measured:
[1] = target: HsProRS (Homo sapiens, UniProt P07814); test: TR-FRET ligand displacement assay with tracer MAT379 (CoraFluor-1-Halo and anti-His6 antibody formats); type: binding; parameters: made in house; host or cells: E. coli SoluBL-21; conditions: for TR-FRET dose-response, normalized signal (SI Fig 11): individual replicates
HsProRS, sequence (P07814 996-1512): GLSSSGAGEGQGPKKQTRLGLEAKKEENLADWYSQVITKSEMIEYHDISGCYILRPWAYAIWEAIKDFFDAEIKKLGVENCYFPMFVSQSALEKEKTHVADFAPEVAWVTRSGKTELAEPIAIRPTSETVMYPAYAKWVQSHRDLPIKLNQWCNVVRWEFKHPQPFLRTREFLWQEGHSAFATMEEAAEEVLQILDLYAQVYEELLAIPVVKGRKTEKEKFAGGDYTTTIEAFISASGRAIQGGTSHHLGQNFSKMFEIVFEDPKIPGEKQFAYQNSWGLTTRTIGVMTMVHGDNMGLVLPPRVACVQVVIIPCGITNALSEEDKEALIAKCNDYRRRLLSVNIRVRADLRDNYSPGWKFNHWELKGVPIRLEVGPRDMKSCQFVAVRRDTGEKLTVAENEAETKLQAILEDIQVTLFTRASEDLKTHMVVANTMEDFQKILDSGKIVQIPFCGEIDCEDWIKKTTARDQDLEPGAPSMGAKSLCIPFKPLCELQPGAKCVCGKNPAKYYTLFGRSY

[2] = target: T1, PfcProRS (Plasmodium falciparum, UniProt Q8I5R7); type: binding; conditions: for dose-response signal (normalized), SI Fig 8: single replicates
T1 construct: made in house; host or cells: E. coli SoluBL-21
T1 sequence (Q8I5R7 249-746): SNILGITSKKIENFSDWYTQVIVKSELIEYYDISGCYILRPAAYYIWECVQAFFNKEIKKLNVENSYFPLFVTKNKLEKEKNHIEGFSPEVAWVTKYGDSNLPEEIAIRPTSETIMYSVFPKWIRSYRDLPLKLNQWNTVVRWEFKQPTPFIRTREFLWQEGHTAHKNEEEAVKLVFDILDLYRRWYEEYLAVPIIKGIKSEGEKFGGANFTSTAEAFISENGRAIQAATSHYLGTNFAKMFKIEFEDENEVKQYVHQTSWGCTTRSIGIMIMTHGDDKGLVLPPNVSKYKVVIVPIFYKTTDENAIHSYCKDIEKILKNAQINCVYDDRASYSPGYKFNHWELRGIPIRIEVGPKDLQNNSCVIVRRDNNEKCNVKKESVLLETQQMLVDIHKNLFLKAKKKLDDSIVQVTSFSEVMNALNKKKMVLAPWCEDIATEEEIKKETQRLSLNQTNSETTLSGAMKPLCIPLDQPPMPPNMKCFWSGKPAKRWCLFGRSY

[3] = test system: P. falciparum Dd2-2D4; test: P. falciparum asexual blood stage (ABS) growth assay, SYBR Green, 72 h, wild-type parasites; type: cell-based, Plasmodium falciparum; conditions: Log[inhibitor] (M) -7.408

O=C(NC1Cc2ccccc2C1)c1nccnc1NC(=O)N1CCNCC1 [compound 14]
IC50 [1]: > 10000 nM | Kd ([1]; HsProRS - best Kd, SI Fig 16a, values on -log scale): 347 nM | normalized TR-FRET ligand displacement signal, dose-response replicates (SI Fig 6) ([1]; Log[inhibitor] (M) -5.000): 7.56E-01 and 7.38E-01 and 6.65E-01 | TR-FRET dose-response, normalized signal (SI Fig 11) ([1]; Log[inhibitor] (M) -5.000): 5.37E-01 and 5.66E-01 and 5.12E-01 | normalized TR-FRET ligand displacement signal, dose-response replicates (SI Fig 6) ([1]; Log[inhibitor] (M) -5.301): 8.27E-01 and 7.77E-01 and 8.29E-01 | TR-FRET dose-response, normalized signal (SI Fig 11) ([1]; Log[inhibitor] (M) -5.301): 7.06E-01 and 7.34E-01 and 7.02E-01 | normalized TR-FRET ligand displacement signal, dose-response replicates (SI Fig 6) ([1]; Log[inhibitor] (M) -5.601): 9.28E-01 and 8.85E-01 and 8.45E-01 | TR-FRET dose-response, normalized signal (SI Fig 11) ([1]; Log[inhibitor] (M) -5.601): 8.30E-01 and 8.51E-01 and 8.70E-01 | normalized TR-FRET ligand displacement signal, dose-response replicates (SI Fig 6) ([1]; Log[inhibitor] (M) -5.904): 9.66E-01 and 1.02E+00 and 8.66E-01 | TR-FRET dose-response, normalized signal (SI Fig 11) ([1]; Log[inhibitor] (M) -5.904): 9.48E-01 and 8.82E-01 and 9.17E-01 | normalized TR-FRET ligand displacement signal, dose-response replicates (SI Fig 6) ([1]; Log[inhibitor] (M) -6.208): 9.85E-01 and 9.86E-01 and 1.00E+00 | TR-FRET dose-response, normalized signal (SI Fig 11) ([1]; Log[inhibitor] (M) -6.208): 9.32E-01 and 8.78E-01 and 9.58E-01 | normalized TR-FRET ligand displacement signal, dose-response replicates (SI Fig 6) ([1]; Log[inhibitor] (M) -6.509): 1.15E+00 and 1.03E+00 and 9.65E-01 | TR-FRET dose-response, normalized signal (SI Fig 11) ([1]; Log[inhibitor] (M) -6.509): 9.64E-01 and 9.63E-01 and 9.66E-01 | normalized TR-FRET ligand displacement signal, dose-response replicates (SI Fig 6) ([1]; Log[inhibitor] (M) -6.796): 1.11E+00 and 1.13E+00 and 1.12E+00 | TR-FRET dose-response, normalized signal (SI Fig 11) ([1]; Log[inhibitor] (M) -6.796): 1.02E+00 and 9.73E-01 and 9.90E-01 | normalized TR-FRET ligand displacement signal, dose-response replicates (SI Fig 6) ([1]; Log[inhibitor] (M) -7.108): 1.08E+00 and 1.05E+00 and 9.83E-01 | TR-FRET dose-response, normalized signal (SI Fig 11) ([1]; Log[inhibitor] (M) -7.108): 9.95E-01 and 1.03E+00 and 9.34E-01 | normalized TR-FRET ligand displacement signal, dose-response replicates (SI Fig 6) ([1]; Log[inhibitor] (M) -7.409): 9.81E-01 and 8.66E-01 and 9.44E-01 | TR-FRET dose-response, normalized signal (SI Fig 11) ([1]; Log[inhibitor] (M) -7.409): 9.68E-01 and 9.66E-01 and 9.87E-01 | normalized TR-FRET ligand displacement signal, dose-response replicates (SI Fig 6) ([1]; Log[inhibitor] (M) -7.710): 1.08E+00 and 1.01E+00 (2×) | TR-FRET dose-response, normalized signal (SI Fig 11) ([1]; Log[inhibitor] (M) -7.710): 1.03E+00 (2×) and 9.36E-01 | normalized TR-FRET ligand displacement signal, dose-response replicates (SI Fig 6) ([1]; Log[inhibitor] (M) -8.000): 9.08E-01 and 9.09E-01 and 9.75E-01 | TR-FRET dose-response, normalized signal (SI Fig 11) ([1]; Log[inhibitor] (M) -8.000): 1.02E+00 and 1.03E+00 and 9.52E-01 | normalized TR-FRET ligand displacement signal, dose-response replicates (SI Fig 6) ([1]; Log[inhibitor] (M) -8.301): 9.22E-01 and 9.86E-01 and 9.29E-01 | TR-FRET dose-response, normalized signal (SI Fig 11) ([1]; Log[inhibitor] (M) -8.301): 1.02E+00 and 9.93E-01 and 9.56E-01 | normalized TR-FRET ligand displacement signal, dose-response replicates (SI Fig 6) ([1]; Log[inhibitor] (M) -8.602): 9.82E-01 and 1.05E+00 and 8.99E-01 | TR-FRET dose-response, normalized signal (SI Fig 11) ([1]; Log[inhibitor] (M) -8.602): 9.98E-01 and 9.57E-01 and 9.65E-01 | normalized TR-FRET ligand displacement signal, dose-response replicates (SI Fig 6) ([1]; Log[inhibitor] (M) -9.000): 1.07E+00 and 1.04E+00 and 1.00E+00 | TR-FRET dose-response, normalized signal (SI Fig 11) ([1]; Log[inhibitor] (M) -9.000): 1.00E+00 and 9.49E-01 and 9.70E-01 | normalized TR-FRET ligand displacement signal, dose-response replicates (SI Fig 6) ([1]; Log[inhibitor] (M) -9.301): 9.76E-01 and 9.94E-01 and 1.01E+00 | TR-FRET dose-response, normalized signal (SI Fig 11) ([1]; Log[inhibitor] (M) -9.301): 9.76E-01 and 1.00E+00 and 9.87E-01 | HsProRS % signal at 10 μM ([1]; no added proline/ATP (-), 10 μM): 53.8% | dose-response signal (normalized), SI Fig 8 ([2]; Log[inhibitor] (M) -5.000): 3.52E-01 and 3.02E-01 and 4.80E-01 | dose-response signal (normalized), SI Fig 8 ([2]; Log[inhibitor] (M) -5.301): 6.97E-01 and 5.97E-01 and 7.91E-01 | dose-response signal (normalized), SI Fig 8 ([2]; Log[inhibitor] (M) -5.601): 7.61E-01 and 7.19E-01 and 8.51E-01 | dose-response signal (normalized), SI Fig 8 ([2]; Log[inhibitor] (M) -5.904): 9.39E-01 and 1.01E+00 and 9.69E-01 | dose-response signal (normalized), SI Fig 8 ([2]; Log[inhibitor] (M) -6.208): 9.51E-01 and 9.80E-01 and 1.13E+00 | dose-response signal (normalized), SI Fig 8 ([2]; Log[inhibitor] (M) -6.509): 1.06E+00 and 1.12E+00 and 9.92E-01 | dose-response signal (normalized), SI Fig 8 ([2]; Log[inhibitor] (M) -6.796): 9.94E-01 and 1.03E+00 and 9.99E-01 | dose-response signal (normalized), SI Fig 8 ([2]; Log[inhibitor] (M) -7.108): 1.00E+00 and 1.01E+00 and 1.05E+00 | dose-response signal (normalized), SI Fig 8 ([2]; Log[inhibitor] (M) -7.409): 1.05E+00 and 9.56E-01 and 1.00E+00 | dose-response signal (normalized), SI Fig 8 ([2]; Log[inhibitor] (M) -7.710): 1.05E+00 and 1.12E+00 and 1.08E+00 | dose-response signal (normalized), SI Fig 8 ([2]; Log[inhibitor] (M) -8.000): 9.77E-01 and 1.04E+00 (2×) | dose-response signal (normalized), SI Fig 8 ([2]; Log[inhibitor] (M) -8.301): 1.09E+00 and 1.08E+00 and 1.13E+00 | dose-response signal (normalized), SI Fig 8 ([2]; Log[inhibitor] (M) -8.602): 9.19E-01 and 1.01E+00 and 1.04E+00 | dose-response signal (normalized), SI Fig 8 ([2]; Log[inhibitor] (M) -9.000): 9.80E-01 and 1.02E+00 and 1.08E+00 | dose-response signal (normalized), SI Fig 8 ([2]; Log[inhibitor] (M) -9.301): 1.02E+00 and 1.01E+00 and 8.73E-01 | PfcProRS -- best Kd ([2]; SI Fig 16a, values on -log scale): 5.788 | dose-response value per replicate (SI Fig 2g) [3]: 106
